Legend:
[1] = test system: gastric-acid secretion caused by the stimulus of pentagastrin; assay: Depression of gastric-acid secretion caused by the stimulus of pentagastrin; type: in vivo; conditions: Rattus norvegicus, iv; SD rats, urethane anesthetized, i.v. test drug, pentagastrin 15 μg/kg/hr i.v.
Description: Measurement of the action of depressing the gastric-acid secretion caused by the stimulus of pentagastrin:
A cannula was inserted into the trachea of a rat anesthetized with urethane (intraperitoneally administered in an amount of 1.25 g/kg), its abdominal wall was incised to expose the gastric and duodenal portions, and a polyethylene cannula was set at the anterior stomach after ligation of the cardia. The duodenum was then subjected to slight section, a polyethylene cannula was inserted from the incised portion toward the stomach, and the pylorus was ligated to fix the cannula.
Physiological saline (with pH adjusted to 7.0) was flown from the anterior stomach toward the pylorus at a speed of 3 ml/min, and the gastric-acid secretion was measured by continuous titration of the flown saline by the use of a pH-stat (AUT-201; product of Toa Electronics, Ltd.). The continuous titration was carried out by using 25 mM caustic soda solution until the pH reached 7.0, and the result was expressed as the amount of gastric acid secreted for every ten minutes (μEq /10 min.). Pentagastrin was intravenously administered at a rate of 15 μg/kg/hr. The secretion of gastric acid increased upon administration of pentagastrin, reaching the maximum level after 60 minutes and stably maintaining this level after that. […]

CCK-B receptor = target: T1, CCK-B receptor (Rattus norvegicus, UniProt P30553); assay: Binding action upon CCK-B receptor ([125I]BH.CCK-8, rat whole brain membrane); design: species or system SD rat; conditions: [125I]BH.CCK-8, 25° C., 120 min, pH 6.5
T1 construct: the whole brain was immediately excised from each of the cut heads and homogenized; from tissue; host or cells: SD rat whole brain, membrane preparation
T1 sequence (P30553 whole entry): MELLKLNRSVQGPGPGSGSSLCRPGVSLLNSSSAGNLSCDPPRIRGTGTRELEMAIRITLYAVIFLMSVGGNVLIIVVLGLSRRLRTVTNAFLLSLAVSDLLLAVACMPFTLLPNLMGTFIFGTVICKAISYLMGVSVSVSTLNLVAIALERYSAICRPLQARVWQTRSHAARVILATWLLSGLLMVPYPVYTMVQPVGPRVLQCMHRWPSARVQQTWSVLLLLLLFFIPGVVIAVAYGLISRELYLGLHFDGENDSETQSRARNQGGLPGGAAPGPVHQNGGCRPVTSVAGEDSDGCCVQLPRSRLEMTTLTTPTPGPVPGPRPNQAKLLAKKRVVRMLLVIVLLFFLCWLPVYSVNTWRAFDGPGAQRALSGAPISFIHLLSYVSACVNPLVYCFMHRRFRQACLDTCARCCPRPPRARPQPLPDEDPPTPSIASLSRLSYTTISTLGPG
Procedure: Measurement of the binding action upon CCK-B receptor:
About 100 heads of SD rats were decapitated without anesthesia, the whole brain was immediately excised from each of the cut heads and homogenized in 10-fold volume of 0.32M aqueous solution of sucrose by the use of a Teflon-coated homogenizer, the homogenate thus obtained was centrifuged for ten minutes at 900 g by the use of a cooled centrifuge, and the supernatant was further centrifuged for 15 minutes at 11500 g. The precipitate thus obtained was dispersed in 50 mM Tris-HCl buffer (pH 7.4) containing 0.08% Triton X-100, this suspension was allowed to stand for 30 minutes and again centrifuged for 15 minutes at 11500 g, the precipitate thus obtained was washed twice with 5 mM Tris-HCl buffer and twice with 50 mM Tris-HCl buffer in that order through centrifugal separation, the washed precipitate was suspended in 50 mM Tris-HCl buffer, and the suspension thus obtained was freeze-stored at -80° C., thus giving membrane preparation.
The membrane preparation was molten at room temperature, diluted with 10 mM HEPES buffer (containing 130 mM NaCl, 5 mM MgCl2, 1 mM EGTA and 0.25 mg/ml bacitracin; pH 6.5) and incubated at 25° C. for 120 minutes in the presence of [^125 I]BH.cndot.CCK-8, and B/F separation was performed by suction filtration. Nonspecific binding was determined in the presence of 1 μM CCK-8. The amount of labelled ligand bound to the receptor was measured by the use of a […]; Ki (CCK-B) values were determined from the binding inhibition curve of the test sample, with the maximum amount of labelled ligand bound to the receptor being set as 100%.

[2] = test system: CCK-A receptor vs CCK-B receptor; assay: Selectivity for CCK-B receptor by comparison with binding to CCK-A receptor (rat pancreas membrane, [3H]L-364,718); design: species or system SD rat; conditions: rat pancreas (CCK-A) vs rat brain (CCK-B)
Procedure: Measurement of selectivity for CCK-B receptor by comparison with the binding to CCK-A receptor in rats:
The pancreas of an SD rat was homogenized in 20-fold volume of 50 mM Tris-HCl buffer (pH 7.7) by the use of a Polytrone-type homogenizer, the homogenate was twice centrifuged for 10 minutes at 50000 g by the use of an ultracentrifuge, the precipitate thus obtained was suspended in 40-fold volume of 50 mM Tris-HCl buffer (containing 0.2% BSA, 5 mM MgCl2, 0.1 mg/ml bacitracin and 5 mM DTT; pH 7.7), and the suspension was freeze-stored at -80° C., thus giving membrane preparation.
The membrane preparation was then molten at room temperature, diluted ten times with the buffer and incubated at 37° C. for 30 minutes in the presence of [^3 H]L-364, 718, and B/F separation was performed by suction filtration. Nonspecific binding was determined in the presence of 1 μM L-364, 718. The amount of labelled ligand bound to the receptor was measured by the use of a liquid scintillation counter; Ki (CCK-A) values were determined from the binding inhibition curve of the test sample, with the maximum amount of labelled ligand bound to the receptor being set as 100%.
The Ki (CCK-A)/Ki (CCK-B) value of the present compound can be calculated from the above test. The higher the value of Ki (CCK-A)/Ki (CCK-B), the higher will be the selectivity to the CCK-B receptor.

benzodiazepine receptor = assay: Binding to the benzodiazepine receptor; conditions: even at 10 μM

Compound	ED50 [1] [µmol/kg]	Ki (CCK-B receptor) [pM]	Ki (CCK-A)/Ki (CCK-B), selectivity for the CCK-B receptor [2] [fold]	binding action to the benzodiazepine receptor (in words) (benzodiazepine receptor)
Cc1cccc(NC(=O)NC2N=C(c3ccccc3)c3ccccc3N(CC(=O)c3ccccc3C)C2=O)c1 (stereo not shown) [Example 2, 1-[2,3-dihydro-1-(2'-methylphenacyl)-2-oxo-5-phenyl-1H-1,4-benzodiazepin-3-yl]-3-(3-tolyl)urea]	0.03	150	1733	–
Cc1ccc(C(=O)CN2C(=O)C(NC(=O)Nc3cccc(C)c3)N=C(c3ccccc3)c3ccccc32)cc1 (stereo not shown) [Example 7, 1-[2,3-Dihydro-1-(4'-methylphenacyl)-2-oxo-5-phenyl-1H-1,4-benzodiazepin-3-yl]-3-(3-tolyl)urea]	–	220	864	–
Cc1cccc(NC(=O)NC2N=C(c3ccccc3)c3ccccc3N(CC(=O)c3sccc3C)C2=O)c1 (stereo not shown) [Example 13, 1-[2,3-Dihydro-1-(3-methyl-2-thenoyl)methyl-2-oxo-5-phenyl-1H-1,4-benzodiazepin-3-yl]-3-(3-tolyl)urea]	–	160	–	–
Cc1cccc(NC(=O)N[C@@H]2N=C(c3ccccc3)c3ccccc3N(CC(=O)c3ccccc3C)C2=O)c1 [Example 16, (R)-1-[2,3-dihydro-1-(2'-methylphenacyl)-2-oxo-5-phenyl-1H-1,4-benzodiazepin-3-yl]-3-(3-tolyl)urea]	–	–	–	no binding action at all
